# Test results as given in patent EP4725507A1, “POLYPEPTIDE CONJUGATE, PHARMACEUTICAL COMPOSITION CONTAINING POLYPEPTIDE CONJUGATE AND USE THEREOF” (Nanjing Anji Biotechnology Co., Ltd., priority 2023, dated 2025).
# Peptide text beside a SMILES is read from it. * marks the point of attachment. Paclitaxel(2'-O-succinyl) = CC(=O)O[C@H]1C(=O)[C@@]2(C)[C@H]([C@H](OC(=O)c3ccccc3)[C@]3(O)C[C@H](OC(=O)[C@H](OC(=O)CCC(=O)*)[C@@H](NC(=O)c4ccccc4)c4ccccc4)C(C)=C1C3(C)C)[C@]1(OC(C)=O)CO[C@@H]1C[C@@H]2O
# Tests used:
# A549 cells [1] = assay: Tumor horizontal migration (scratch test); assay type: cell-based; conditions: 48 h
# Description: A549 cells in the logarithmic growth phase were taken, digested with trypsin to prepare a cell suspension, and 1 mL of the cell suspension was inoculated into a 24-well plate with 3.5×10^5 cells per well. The 24-well plate was incubated in a 37°C, 5% CO2 incubator for 24 h, then a scratch was made vertically along the horizontal line at the bottom of the plate using a 200 µL pipette tip (one scratch per well). The original medium was discarded, and the wells were washed twice with 1 mL PBS. A blank group, a positive drug group, and an administration group were set up. […] The cell migration status was photographed at 0 h and 48 h using a microscope (model: CKX31SF, manufacturer: OLYMPUS CORPORATION) at a magnification of 100×. Meanwhile, ImageJ 1.74V was used for quantitative calculation of the number of migrated tumor cells, and the results were expressed as mean ± SD (n = 3).
# A549 cells [2] = assay: Tumor vertical migration (Transwell chambers); assay type: cell-based; conditions: 48 h
# Description: A549 cells in the logarithmic growth phase were taken, digested with trypsin to prepare a cell suspension, and 100 µL of the cell suspension was inoculated into Transwell chambers with 3.5×10^4 cells per well. A blank group, a positive drug group, and an administration group were set up. […] 600 µL of F-12K medium containing 10% FBS was added to the 24-well plate holding the chambers. After incubation in a 37°C, 5% CO2 incubator for 48 h, the cells were fixed with methanol for 30 min and stained with crystal violet for 10 min. After staining, the cell migration status was photographed under a microscope (model: CKX31SF, manufacturer: OLYMPUS CORPORATION) at a magnification of 100×. Meanwhile, Photoshop 20.0.1 was used for quantitative calculation of the number of migrated tumor cells, and the results were expressed as mean ± SD (n = 3).
# [3] = tested on: non-small cell lung cancer A549 xenograft tumors; assay: In vivo tumor-inhibitory activity of DOC-AI, A549 xenograft; design: species or system BALB/c nude mice; conditions: 4 days on, 3 days off until day 21
# Description: (§1) Non-small cell lung cancer A549 cells and human gastric cancer MKN-45 cells were preserved in F12-K medium containing 10% fetal bovine serum and 1% penicillin + streptomycin, and incubated at 37°C with 5% CO2 and 95% humidity. The aforementioned cells were cultured in T175 flasks with an experimental cell density of 80%. The aforementioned cell lines were mycoplasma-negative. Both A549 cells and MKN-45 cells were provided by Nanjing Anji Biotechnology Co., Ltd.
# Non-small cell lung cancer A549 cells in the vigorous growth stage were taken and inoculated subcutaneously into the right axilla of BALB/c nude mice (Nanjing Zhonghua Biotechnology Co., Ltd.) under sterile conditions, with a cell inoculation amount of 1×10^7. The diameter of transplanted tumors in nude mice was measured with a vernier caliper. When the tumors grew to approximately 50 mm^3, 30 tumor-bearing nude mice with good growth status and relatively uniform tumor size were selected and divided into 5 groups, with 6 mice in each group. The administration frequency was continuous administration for 4 days followed by an interval of 3 days, and this cycle was repeated until day 21. The anti-tumor effect in the nude mice was dynamically observed by measuring the tumor diameter. The tumor diameter was measured every other day, and the body weight of the nude mice was weighed simultaneously during the measurement of the tumor diameter. After 21 days of administration, the nude mice were euthanized, the tumor inhibition rate (%) was calculated, and the tumor masses were peeled off and weighed. Table 2 Detection of In Vivo Tumor-Inhibitory Activity of DOC-AI
# [4] = tested on: gastric cancer MKN45 xenograft tumors; assay: In vivo tumor-inhibitory activity of DOC-AI, MKN45 xenograft; design: species or system BALB/c nude mice; Tumor Weight: unit not given here; conditions: 6.20 µmol/Kg
# Description: as §1
# Gastric cancer MKN45 cells in the vigorous growth stage were taken and inoculated subcutaneously into the right axilla of BALB/c nude mice (Hangzhou Ziyuan Laboratory Animal Technology Co., Ltd.) under sterile conditions, with a cell inoculation amount of 1×10^7. The diameter of transplanted tumors in nude mice was measured with a vernier caliper. When the tumors grew to approximately 50 mm^3, 18 tumor-bearing nude mice with good growth status and relatively uniform tumor size were selected and divided into 3 groups, with 6 mice in each group. The administration frequency was once every 3 days, and this cycle was repeated until day 21. The anti-tumor effect in the nude mice was dynamically observed by measuring the tumor diameter. The tumor diameter was measured every other day, and the body weight of the nude mice was weighed simultaneously during the measurement of the tumor diameter. After 21 days of administration, the nude mice were euthanized, the tumor inhibition rate (%) was calculated, and the tumor masses were peeled off and weighed. Table 7 Results of Detection of In Vivo Tumor-Inhibitory Activity of DOC-AI
# [5] = tested on: human gastric cancer cell MKN45 xenograft tumors; assay: In vivo tumor-inhibitory activity of PTX-AI, MKN45 xenograft; design: species or system BALB/c nude mice; conditions: 21 days; for Final Tumor Volume: in mm³ (unit assumed)
# Description: as §1
# Human gastric cancer cells MKN-45 in the vigorous growth stage were taken and inoculated subcutaneously into the right axilla of BALB/c nude mice under sterile conditions, with a cell inoculation amount of 5×10^6. The diameter of transplanted tumors in nude mice was measured with a vernier caliper. When the tumors grew to approximately 50mm^3, […] tumor-bearing nude mice with good growth status and relatively uniform tumor size were selected, and divided into 6 groups, including 10 mice in the model group and 8 mice in each of the remaining groups. The anti-tumor effect of the test substance was dynamically observed by measuring the tumor diameter. The tumor diameter was measured every other day, and the body weight of the nude mice was weighed simultaneously during the measurement of the tumor diameter. After 21 days of administration, the nude mice were euthanized, the tumor inhibition rate (%) was calculated, and the tumor masses were peeled off and weighed. Table 3 Detection of In Vivo Tumor-Inhibitory Activity of PTX-AI
# [6] = MKN45 xenograft, once every 3 days until day 21
# [7] = 2.64 µmol/Kg, once every other day
# [8] = 4.07 µmol/Kg, once every other day
# [9] = 5.28 µmol/Kg, continuous administration for 4 days a week
# [10] = 7.92 µmol/Kg, once every other day
smiles,measurement,setting,value
CC(=O)O[C@@]12CO[C@@H]1C[C@H](O)[C@@]1(C)C(=O)[C@H](O)C3=C(C)[C@@H](OC(=O)[C@H](OC(=O)CCC(=O)N[C@@H](CCCNC(=N)N)C(=O)N[C@@H](CO)C(=O)N4CCC[C@H]4C(=O)N[C@@H](Cc4ccc(O)cc4)C(=O)N[C@@H](C)C(=O)N[C@@H](CC(N)=O)C(=O)N[C@@H](CO)C(=O)O)[C@@H](NC(=O)OC(C)(C)C)c4ccccc4)C[C@@](O)([C@@H](OC(=O)c4ccccc4)[C@H]21)C3(C)C [DOC-AI],horizontal migration rate,A549 cells [1]; 1 nM DOC-AI compared with 100 nM DOC,lower than that of 100 nM DOC
same,horizontal migration of A549 cells,"A549 cells [1]; 100 nM, 10 nM, 1 nM, compared with the blank group",effectively inhibited the horizontal migration of A549 cells in a concentration-dependent manner
same,vertical migration rate,A549 cells [2]; 10 nM DOC-AI compared with 10 nM DOC,lower than that of 10 nM DOC
same,vertical migration of A549 cells,"A549 cells [2]; 1 µM, 100 nM, 10 nM, 1 nM, compared with the blank group",effectively inhibited the vertical migration of A549 cells in a concentration-dependent manner
same,effective concentration (vertical migration),"A549 cells [2]; A549, lowest effective concentration",1 nM
same,Final Tumor Volume,[3]; 6.20 µmol/Kg,73.75±23.01
same,Tumor Inhibition Rate,[3]; 6.20 µmol/Kg,90.40%
same,Tumor Weight,[3]; 6.20 µmol/Kg,81.00 ± 40.81 mg
same,Final Tumor Volume,[3]; 12.40 µmol/Kg,31.31±22.73
same,Tumor Inhibition Rate,[3]; 12.40 µmol/Kg,95.33%
same,Tumor Weight,[3]; 12.40 µmol/Kg,51.83 ± 31.36 mg
same,Final Tumor Volume,[3]; 24.80 µmol/Kg,20.30±20.80
same,Tumor Inhibition Rate,[3]; 24.80 µmol/Kg,97.33%
same,Tumor Weight,[3]; 24.80 µmol/Kg,20.53 ± 20.80 mg
same,body weight changes,"[4]; MKN45 xenograft nude mice, during the administration period",no significant weight loss was observed
same,Tumor Inhibition Rate,[4]; [6],84.25±9.15%
same,Tumor Weight,[4]; [6],204.34±54.48
same,Final Tumor Volume,"[4]; MKN45 xenograft, once every 3 days until day 21, in mm³ (unit assumed)",191.31±54.48
CC(=O)O[C@H]1C(=O)[C@@]2(C)[C@H]([C@H](OC(=O)c3ccccc3)[C@]3(O)C[C@H](OC(=O)[C@H](OC(=O)CCC(=O)N[C@@H](CCCNC(=N)N)C(=O)N[C@@H](CO)C(=O)N4CCC[C@H]4C(=O)N[C@@H](Cc4ccc(O)cc4)C(=O)N[C@@H](C)C(=O)N[C@@H](CC(N)=O)C(=O)N[C@@H](CO)C(=O)O)[C@@H](NC(=O)c4ccccc4)c4ccccc4)C(C)=C1C3(C)C)[C@]1(OC(C)=O)CO[C@@H]1C[C@@H]2O [PTX-AI] ({Paclitaxel(2'-O-succinyl)}-RSPYANS-OH),Tumor Inhibition Rate,[5]; [7],36.3%
same,Tumor Weight,[5]; [7],0.961 ± 0.119 g
same,Final Tumor Volume,[5]; [7],934.0±125.0
same,Tumor Inhibition Rate,[5]; [8],42.9%
same,Tumor Weight,[5]; [8],0.861 ± 0.126 g
same,Final Tumor Volume,[5]; [8],852.1±137.3
same,Tumor Inhibition Rate,[5]; [9],53.3%
same,Tumor Weight,[5]; [9],0.705 ± 0.066 g
same,Final Tumor Volume,[5]; [9],700.6±59.6
same,Tumor Inhibition Rate,[5]; [10],60.8%
same,Tumor Weight,[5]; [10],0.591 ± 0.099 g
same,Final Tumor Volume,[5]; [10],579.8±91.9
